Tests used:
HCT116 MTAP-/- = experiment: Inhibition of cellular proliferation, 4 days, Cell Titer Glo, HCT116 MTAP-/-; assay type: cell-based; conditions: Homo sapiens, HCT-116, 96 h, IC50 score, read-out: 4 Day Relative Growth Inhibition (MTAP −/−)
Description: (§1) Assay for Inhibition of Cellular Proliferation
(§2) Test compound impact on cancer cell growth was assessed by treating cancer cells with compound for 4 days and then measuring proliferation using an ATP-based cell proliferation readout (Cell Titer Glo, Promega Corporation).
(§3) In a typical assay an isogenic pair of HCT116 human colon carcinoma cell lines which vary only in MTAP deletion status (HCT116 MTAP +/+ and HCT116 MTAP−/−) were plated in 96-well dishes at appropriate cell density. Following 24 hours, cells were then treated with the candidate MAT2A inhibitor. Prior to addition to cells, the compound was first serially diluted in 100% DMSO, typically as a 3-fold serial dilution starting at 500× top dose with 10 dose points including DMSO only control. Compound was then transferred to a working stock plate in cell culture media by adding 5 μL of compound in DMSO to 495 μL of cell culture media. This working stock was then added to cells via a further 5-fold dilution, by adding 25 μL of working stock to 100 μL of cells in culture media. Following compound addition, cells were incubated at 37° C./5% C02 for 4 days.
(§4) To measure inhibition of cellular proliferation, cells were allowed to equilibrate to room temperature for 30 minutes, and were then treated with 125 μL of Cell Titer Glo reagent. The plate was then covered with aluminum foil and shaken for 15 minutes to ensure complete mixing and full cell lysis. Luminescent signal was then measured using a plate-based luminometer Veritas version 1.9.2 using ATP standard curve to confirm assay reproducibility from run to run. This luminescence measure was converted to a proliferation index by subtracting from each data point the ATP luminescence signal measured from a bank (no cells) well and dividing by the ATP luminescence signal measured in 0.2% DMSO control well adjusted for signal in blank well. Compound activity was then represented as a percentage change in proliferation relative to a within-plate DMSO control against log 10 of compound concentration in molar (M) units.

[1] = system: SAM in HCT116 human colon carcinoma cell line with deleted MTAP gene; experiment: Cellular assay of target engagement (SAM): SAM level by LC-MS/MS after 72 hrs; assay type: cell-based; conditions: HCT-116, IC50 score, read-out: Cell 72 h SAM Inhibition (MTAP −/−)
Description: Cellular Assay of Target Engagement (SAM)
Measurement of MAT2A activity in cells was made by direct quantitation of the abundance of the product of its enzymatic activity, SAM. Cancer cells were treated with candidate MAT2A inhibitors for a suitable incubation period, and the cells were then lysed using a reagent which quenched any further enzyme activity. Soluble metabolites including SAM were collected and SAM itself was directly measured from the lysate using quantitative LC-MS/MS.
A typical assay was performed using an HCT116 human colon carcinoma cell line which was genetically engineered to delete the MTAP gene (commercially available from Horizon Discovery). This cell line was utilized because it was determined that loss of the MTAP gene predicts sensitivity to MAT2A inhibitors. Cells were plated in 96-well dishes at appropriate cell density. Following 24 hours, cells were then treated with the candidate MAT2A inhibitor. Prior to addition to cells, the compound was first serially diluted in 100% DMSO, typically as a 3-fold serial dilution starting at 500× top dose with 10 dose points including DMSO only control. Compound was then transferred to a working stock plate in cell culture media by adding 5 μL of compound in DMSO to 495 μL of cell culture media. This working stock was then added to cells via a further 5-fold dilution, by adding 25 μL of working stock to 100 μL of cells in culture media. Following compound addition, cells were incubated at 37° C./5% CO2 for 72 hrs.
To quantitate SAM levels following compound treatment, cells were gently washed once in ammonium carbonate buffer (75 mM at pH 7.4), placed on dry ice, and lysed with metabolite extraction buffer (80% cold methanol and 20% water (v/v) with acetic acid at 1M final concentration with 200 ng/mL deuterated d3-SAM as internal control). Following centrifugation at 4° C. at 3,200 rpm for 30 minutes, the supernatant was collected and stored at −80° C. until analysis by Liquid Chromatography with tandem Mass Spectrometry (LC-MS/MS). LC-MS/MS analysis was performed using an API6500 Mass Spectrometer (Sciex, Framingham, Mass., USA) operating in positive ion spray mode and equipped with a Waters UPLC Acquity (Waters, Milford, Mass., USA) BEH Amide column. Multiple Reaction Monitoring data was acquired for SAM and the d3-SAM standard, using a mass transition pair at m/z 399.2→250.1 and 402.2→250.1, respectively. In a typical LC-MS/MS analysis, the initial flow rate was 0.5 ml/min of 25% mobile phase A (acetonitrile and water at 5:95 (v/v) with 1% formic acid and 10 mM ammonium acetate) and 75% mobile phase B (acetonitrile and water at 95:5 (v/v) with 1% formic acid and 10 mM ammonium acetate), 0.2-0.5 minutes with 75%-35% mobile phase B, 25%-65% mobile phase A, at 0.5 min 65% mobile phase A and 35% mobile phase B, 1.0-1.1 minutes with 35%-75% mobile phase B, 65%-25% mobile phase A, at 1.1 min 25% mobile phase A and 75% mobile phase B with a total run time of 1.5 minutes.

MAT2A homodimer = molecular target: T1, MAT2A homodimer (Homo sapiens, UniProt P31153); experiment: Biochemical assay: inhibition of recombinant MAT2A homodimer (phosphate release, PiColorLock Gold); conditions: MAT2A IC50 score; read-out: Enzyme Inhibition
T1 construct: inferred from Ni sepharose purification and imidazole elution; made in house; host or cells: Sf9 insect cells, recombinant baculovirus (Bac to Bac, pFASTBAC1 vector)
T1 sequence (P31153 whole entry): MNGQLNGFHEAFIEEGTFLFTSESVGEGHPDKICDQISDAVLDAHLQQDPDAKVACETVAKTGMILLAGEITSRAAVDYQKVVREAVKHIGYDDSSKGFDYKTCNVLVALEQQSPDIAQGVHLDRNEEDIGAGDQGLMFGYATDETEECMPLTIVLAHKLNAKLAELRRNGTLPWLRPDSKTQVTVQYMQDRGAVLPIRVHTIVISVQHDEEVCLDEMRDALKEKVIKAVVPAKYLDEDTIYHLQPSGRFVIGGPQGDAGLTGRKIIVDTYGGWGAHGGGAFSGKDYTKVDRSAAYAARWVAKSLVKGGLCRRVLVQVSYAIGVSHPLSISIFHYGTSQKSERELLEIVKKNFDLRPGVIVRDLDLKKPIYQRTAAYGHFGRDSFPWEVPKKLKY
Procedure, shortened: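 Baculovirus/Sf9-expressed, Ni-purified MAT2A at 4 μg/mL in pH 8.0 Tris/KCl/MgCl2/EDTA/BSA buffer, preincubated with compound 60 min at 25 °C. Started with ATP and L-methionine substrate mix (500 μM and 40 μM, stock in mix), 60 min at 25 °C; released phosphate by PiColorLock Gold against a phosphate standard curve.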

HCT116 MTAP +/+ = experiment: Inhibition of cellular proliferation, 4 days, Cell Titer Glo, HCT116 MTAP+/+; assay type: cell-based; conditions: Homo sapiens, HCT-116, 96 h, IC50 score, read-out: 4 Day Relative Growth Inhibition (MTAP +/+)
Description: as §1, §2, §3, §4

IC50 (HCT116 MTAP-/-) [nM]	IC50 [1] [nM]	IC50 (MAT2A homodimer) [nM]	IC50 (HCT116 MTAP +/+) [nM]	SMILES
< 100	< 100	< 100	100 to 1000	COc1ccc(-n2c(=O)c(-c3ccc4ncncc4c3)cc3cnc(NCC(F)(F)F)nc32)cc1 [Example 176]
≥ 1000	< 100	< 100	≥ 1000	COc1ccc(-n2c(=O)c(-c3ccc4c(c3)OCO4)cc3cnc(NCC(F)(F)F)nc32)cc1 [Example 177]
100 to 1000	100 to 1000	< 100	≥ 1000	COc1ccc(-n2c(=O)c(-c3ccc(=O)n(C)c3)cc3cnc(NCC(F)(F)F)nc32)cc1 [Example 180]
≥ 1000	100 to 1000	< 100	≥ 1000	COc1ccc(-n2c(=O)c(-c3cn[nH]c3)cc3cnc(NCC(F)(F)F)nc32)cc1 [Example 183]
100 to 1000	< 100	< 100	≥ 1000	COc1ccc(-n2c(=O)c(-c3ccc4nccnc4c3)cc3cnc(NCC(F)(F)F)nc32)cc1 [Example 185]
100 to 1000	< 100	< 100	≥ 1000	COc1ccc(-n2c(=O)c(-c3ccc4nnccc4c3)cc3cnc(NCC(F)(F)F)nc32)cc1 [Example 186]
100 to 1000	100 to 1000	< 100	≥ 1000	COc1ccc(-n2c(=O)c(-c3cnn(C)c3)cc3cnc(NCC(F)(F)F)nc32)cc1 [Example 187]
100 to 1000	< 100	< 100	≥ 1000	COc1ccc(-n2c(=O)c(-c3ccc4ncsc4c3)cc3cnc(NCC(F)(F)F)nc32)cc1 [Example 188]
100 to 1000	100 to 1000	< 100	≥ 1000	COc1ccc(-n2c(=O)c(-c3ccc4ncoc4c3)cc3cnc(NCC(F)(F)F)nc32)cc1 [Example 189]
< 100	< 100	< 100	100 to 1000	COc1ccc(-n2c(=O)c(-c3ccc4nncn4c3)cc3ccc(OCC(F)F)nc32)cc1 [Example 194, 3-([1,2,4]triazolo[4,3-a]pyridin-6-yl)-7-(2,2-difluoroethoxy)-1-(4-methoxyphenyl)-1,8-naphthyridin-2(1H)-one]
< 100	< 100	< 100	100 to 1000	CCOc1ccc2cc(-c3ccc4ncn(C)c4c3)c(=O)n(-c3ccc(Cl)cc3)c2n1 [Example 195]
100 to 1000	< 100	< 100	100 to 1000	CCOc1ccc2cc(-c3ccc4nn(CC(C)(C)O)cc4c3)c(=O)n(-c3ccc(Cl)cc3)c2n1 [Example 196]
< 100	< 100	< 100	≥ 1000	CCOc1ccc2cc(-c3ccc4nccn4c3)c(=O)n(-c3ccc(Cl)cc3)c2n1 [Example 197]
100 to 1000	< 100	< 100	≥ 1000	CCOc1ccc2cc(-c3ccc(=O)n(C)c3)c(=O)n(-c3ccc(Cl)cc3)c2n1 [Example 199]
< 100	< 100	< 100	100 to 1000	CCOc1ccc2cc(-c3ccc4nnn(C)c4c3)c(=O)n(-c3ccc(Cl)cc3)c2n1 [Example 200]
< 100	< 100	< 100	≥ 1000	CCOc1ccc2cc(-c3ccc4nn(C)nc4c3)c(=O)n(-c3ccc(Cl)cc3)c2n1 [Example 201]
100 to 1000	100 to 1000	< 100	≥ 1000	CCOc1ccc2cc(-c3ccnc(OC)c3)c(=O)n(-c3ccc(Cl)cc3)c2n1 [Example 202]
< 100	< 100	< 100	≥ 1000	CCOc1ccc2cc(-c3ccc4ncsc4c3)c(=O)n(-c3ccc(Cl)cc3)c2n1 [Example 203]
< 100	< 100	< 100	≥ 1000	CCOc1ccc2cc(-c3ccn4nccc4c3)c(=O)n(-c3ccc(Cl)cc3)c2n1 [Example 204]
< 100	< 100	< 100	≥ 1000	CCOc1ccc2cc(-c3ccc4nncn4c3)c(=O)n(-c3ccc(Cl)cc3)c2n1 [Example 205]
100 to 1000	< 100	< 100	100 to 1000	CCOc1ccc2cc(-c3ccc4nn(CC(C)(C)O)cc4c3)c(=O)n(-c3ccc(OC(F)F)cc3)c2n1 [Example 207]
< 100	< 100	< 100	100 to 1000	CCOc1ccc2cc(-c3ccc(=O)n(C)c3)c(=O)n(-c3ccc(OC(F)F)cc3)c2n1 [Example 208]
< 100	< 100	< 100	100 to 1000	CCOc1ccc2cc(-c3ccc4nnn(C)c4c3)c(=O)n(-c3ccc(OC(F)F)cc3)c2n1 [Example 209]
< 100	< 100	< 100	100 to 1000	CCOc1ccc2cc(-c3ccc4nccn4c3)c(=O)n(-c3ccc(OC(F)F)cc3)c2n1 [Example 210]
100 to 1000	100 to 1000	< 100	≥ 1000	CCOc1ccc2cc(-c3ccc4nn(CC(C)(C)O)cc4c3)c(=O)n(-c3ccc(OC(F)F)nc3)c2n1 [Example 213]
100 to 1000	< 100	< 100	≥ 1000	O=c1c(-c2ccc3nncn3c2)cc2ccc(OCC(F)(F)F)nc2n1-c1ccc(Cl)cc1 [Example 214]
< 100	< 100	< 100	≥ 1000	CCOc1ccc2cc(-c3ccc4nncn4c3)c(=O)n(-c3ccc(OC(F)F)cc3)c2n1 [Example 216]
< 100	< 100	< 100	≥ 1000	CCOc1ccc2cc(-c3ccc4nncn4c3)c(=O)n(-c3ccc(OC)cc3)c2n1 [Example 217]
< 100	< 100	< 100	≥ 1000	O=c1c(-c2ccc3nncn3c2)cc2ccc(OCC(F)F)nc2n1-c1ccc(Cl)cc1 [Example 218]
